# According to patent US12590118B2, “Salt and crystal form of steroid derivative regulator” (Shanghai Hansoh Biomedical Co., Ltd., priority 2019, dated 2026):
# How the values were obtained:
# [1] = Solid stability experiment (total impurities); format: physicochemical
# Description: The physicochemical stability of candidate crystal forms I, II and III of the free base of Example 40 under influencing factors such as high temperature, high humidity and strong light was investigated, so as to provide a basis for the production and storage of the compound.
# The related substance change of the free base was calculated by chromatographic peak area normalization method.
# GABA-A receptor = experiment: 35S-TBPS binding assay (GABAA receptor binding ability assay); design: species or system Sprague-Dawley rat; settings: rat cerebral cortex cell membrane, 5 μM GABA, 2 nM 35S-TBPS; read-out: IC50 on inhibiting the TBPS binding activity, 35S-TBPS bindng assay
# Method in brief: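 Male Sprague-Dawley rat cerebral cortex membranes in PBS, preincubated with compound (1% DMSO, 8-point 3-fold series) 5 min at 25° C, then GABA 5 μM final 5 min, then 2 nM 35S-TBPS for 20 h at 4° C. Bound radioactivity filtered on PEI-treated GF/C and counted. % inhibition relative to DMSO and 10 μM P026-2 controls; IC50 from 4-parameter fit.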
SMILES,"Total impurities (%) ([1]; 50° C./75% RH Open, 5 d)","Total impurities (%) ([1]; 50° C./75% RH Open, 10 d)","Total impurities (%) ([1]; 60° C. Sealed, 5 d)","Total impurities (%) ([1]; 60° C. Sealed, 10 d)","Total impurities (%) ([1]; Initial sample, 0 d)","Total impurities (%) ([1]; Light 5k lux Sealed, 10 d)","Total impurities (%) ([1]; Light 5k lux Sealed, column printed 10 d)","Total impurities (%) ([1]; RT/90% RH Open, 5 d)","Total impurities (%) ([1]; RT/90% RH Open, column printed 5 d)","change of impurities (in words) ([1]; high temperature, high humidity and light for 10 days)",IC50 (GABA-A receptor) [nM]
"C[C@@H]1C[C@H](C(=O)Cn2ccc(C#N)n2)[C@@]2(C)CC[C@H]3[C@@H](CC[C@@H]4C[C@](C)(O)CC[C@@H]43)[C@H]12 [Crystal form I, 1-(2-((3R,5R,8R,9R,10S,13S,14S,15R,17S)-3-Hydroxy-3,13,15-trimethylhexadecahydro-1H-cyclopenta[a]phenanthren-17-yl)-2-oxoethyl)-1H-pyrazole-3-carbonitrile]",0.56,0.59,0.55,0.56,0.59,0.56,0.57,0.56,0.56,the impurities did not increase,
"C[C@@]1(O)CC[C@H]2[C@H](CC[C@@H]3[C@@H]2CC[C@@]2(C)[C@H]3[C@@H]3C[C@@H]3[C@@H]2C(=O)Cn2ccc(C#N)n2)C1 [Example 2, 1-(2-((2R,4aS,4bR,6aS,7S,7aS,8aR,8bR,8cR,10aR)-2-Hydroxy-2,6a-dimethyloctadecahydrocyclopropa[4,5]cyclopenta[1,2-a]phenanthren-7-yl)-2-oxoethyl)-1H-pyrazole-3-carbonitrile]",,,,,,,,,,,14.9
"C[C@@H]1C[C@H](C(=O)Cn2ccc(C#N)n2)[C@@]2(C)CC[C@H]3[C@@H](CC[C@@H]4C[C@](C)(O)CC[C@@H]43)[C@H]12 [Example 40, 1-(2-((3R,5R,8R,9R,10S,13S,14S,15R,17S)-3-Hydroxy-3,13,15-trimethylhexadecahydro-1H-cyclopenta[a]phenanthren-17-yl)-2-oxoethyl)-1H-pyrazole-3-carbonitrile]",,,,,,,,,,,8.2
